Results as given in patent US20250066363A1, “Bicyclic DGK Inhibitors” (Incyte Corporation, priority 2023, published 2025).
pIC50: −log10 of the molar value.

What was measured:
DGKα = DGKα (Homo sapiens (Human), UniProt P23743); assay: In vitro DGKα inhibition assay (ADP-Glo); type: biochemical; settings: first column of Table A
DGKζ = DGKζ (Homo sapiens (Human), UniProt Q13574); assay: In vitro DGKζ inhibition assay (ADP-Glo); type: biochemical; settings: second column of Table A, head printed DGKα, presumably DGKζ; His-tagged human recombinant DGKζ 0.4 nM, 30 μM ATP, 20 μM DLG
Sequence of DGKζ (Q13574 whole entry): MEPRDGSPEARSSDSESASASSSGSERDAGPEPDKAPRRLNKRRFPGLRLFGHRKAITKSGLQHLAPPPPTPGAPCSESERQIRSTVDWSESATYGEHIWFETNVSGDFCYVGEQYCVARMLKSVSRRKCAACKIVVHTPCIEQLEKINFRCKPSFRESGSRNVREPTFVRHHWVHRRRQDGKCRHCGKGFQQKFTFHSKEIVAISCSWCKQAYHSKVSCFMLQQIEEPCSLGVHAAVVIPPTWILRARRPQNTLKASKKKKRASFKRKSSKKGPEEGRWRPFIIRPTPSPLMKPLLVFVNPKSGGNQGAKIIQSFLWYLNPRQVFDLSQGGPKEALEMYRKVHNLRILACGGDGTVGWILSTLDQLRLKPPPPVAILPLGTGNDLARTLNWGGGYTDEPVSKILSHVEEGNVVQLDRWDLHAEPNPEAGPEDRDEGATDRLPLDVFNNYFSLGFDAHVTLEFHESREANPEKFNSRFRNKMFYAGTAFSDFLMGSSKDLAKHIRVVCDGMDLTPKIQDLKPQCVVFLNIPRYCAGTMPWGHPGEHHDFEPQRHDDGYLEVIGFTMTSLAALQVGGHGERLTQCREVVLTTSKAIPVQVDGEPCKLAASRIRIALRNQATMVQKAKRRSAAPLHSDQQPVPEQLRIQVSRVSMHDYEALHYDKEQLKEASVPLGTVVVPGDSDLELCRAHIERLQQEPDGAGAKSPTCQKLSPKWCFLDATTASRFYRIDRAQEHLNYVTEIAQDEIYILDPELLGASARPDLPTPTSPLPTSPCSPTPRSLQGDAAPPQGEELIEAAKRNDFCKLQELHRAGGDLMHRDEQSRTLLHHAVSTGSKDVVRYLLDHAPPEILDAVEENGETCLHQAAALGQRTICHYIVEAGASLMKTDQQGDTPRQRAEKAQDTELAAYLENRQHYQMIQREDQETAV

[1] = His-tagged human recombinant DGKα 0.1 nM, 50 μM ATP, 20 μM DLG

Sequence of DGKα (P23743 whole entry): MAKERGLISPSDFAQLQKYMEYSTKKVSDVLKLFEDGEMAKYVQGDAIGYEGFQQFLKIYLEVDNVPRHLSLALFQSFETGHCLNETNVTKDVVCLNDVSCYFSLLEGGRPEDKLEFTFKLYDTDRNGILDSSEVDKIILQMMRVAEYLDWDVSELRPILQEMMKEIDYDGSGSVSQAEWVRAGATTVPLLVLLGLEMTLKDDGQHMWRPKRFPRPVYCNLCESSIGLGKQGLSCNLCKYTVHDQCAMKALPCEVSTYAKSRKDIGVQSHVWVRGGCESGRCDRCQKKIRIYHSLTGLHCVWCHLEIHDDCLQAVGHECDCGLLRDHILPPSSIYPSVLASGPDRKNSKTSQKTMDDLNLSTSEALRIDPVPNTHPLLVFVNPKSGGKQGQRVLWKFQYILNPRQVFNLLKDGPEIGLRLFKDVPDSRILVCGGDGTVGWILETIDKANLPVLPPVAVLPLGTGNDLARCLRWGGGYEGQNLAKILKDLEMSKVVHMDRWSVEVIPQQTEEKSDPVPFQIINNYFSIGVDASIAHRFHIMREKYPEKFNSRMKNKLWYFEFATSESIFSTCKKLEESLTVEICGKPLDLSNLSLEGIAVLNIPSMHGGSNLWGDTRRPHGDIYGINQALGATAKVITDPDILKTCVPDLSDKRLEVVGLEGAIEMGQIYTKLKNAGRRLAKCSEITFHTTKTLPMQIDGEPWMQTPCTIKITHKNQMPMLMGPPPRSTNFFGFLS

SMILES	pIC50 (DGKα; [1])	pIC50 (DGKζ)	pIC50 (DGKα; cell prints a figure instead of a class symbol (possibly a misprint of +))
CC[C@@H]1CN(c2nc(=O)[nH]c3c2nc(C)n3C[C@@H]2CCCO2)[C@@H](C)CN1C(c1ccc(Cl)cc1)C1CC(F)(F)C1 (stereo partly drawn) [Example 36, 6-((2S,5R)-4-((4-Chlorophenyl)(3,3-difluorocyclobutyl)methyl)-5-ethyl-2-methylpiperazin-1-yl)-8-methyl-9-(((S)-tetrahydrofuran-2-yl)methyl)-3,9-dihydro-2H-purin-2-one]	≥ 8.00	≥ 7.00	
CC[C@@H]1CN(c2nc(=O)n(C)c3c2nc(C)n3C[C@@H]2CCCO2)[C@@H](C)CN1C(c1ccc(Cl)cc1)C1CC(F)(F)C1 (stereo partly drawn) [Example 37, 6-((2S,5R)-4-((4-Chlorophenyl)(3,3-difluorocyclobutyl)methyl)-5-ethyl-2-methylpiperazin-1-yl)-3,8-dimethyl-9-(((S)-tetrahydrofuran-2-yl)methyl)-3,9-dihydro-2H-purin-2-one]	≥ 8.00	≥ 8.00	
CC[C@@H]1CN(c2nc(=O)n(C)c3c2nc(C)n3C[C@@H]2CCCO2)[C@@H](C)CN1C(c1ccc(C(F)(F)F)cc1)C1CC(F)(F)C1 (stereo partly drawn) [Example 38, 6-((2S,5R)-4-((3,3-Difluorocyclobutyl)(4-(trifluoromethyl)phenyl)methyl)-5-ethyl-2-methylpiperazin-1-yl)-3,8-dimethyl-9-(((S)-tetrahydrofuran-2-yl)methyl)-3,9-dihydro-2H-purin-2-one]	≥ 8.00	≥ 8.00	
Cc1nc2c(N3C[C@@H](C)N(C(c4ccc(Cl)c(F)c4)C4CC(F)(F)C4)C[C@@H]3C)nc(=O)n(C)c2n1C[C@@H]1CCCO1 (stereo partly drawn) [Example 39, 6-((2S,5R)-4-((4-Chloro-3-fluorophenyl)(3,3-difluorocyclobutyl)methyl)-2,5-dimethylpiperazin-1-yl)-3,8-dimethyl-9-(((S)-tetrahydrofuran-2-yl)methyl)-3,9-dihydro-2H-purin-2-one]	≥ 8.00	≥ 8.00	
Cc1nc2c(N3C[C@@H](C)N(C(c4ccc(C(F)(F)F)cc4)C4CC(F)(F)C4)C[C@@H]3C)cc(=O)n(C)c2n1C[C@@H]1CCCO1 (stereo partly drawn) [Example 40, 7-((2S,5R)-4-((3,3-Difluorocyclobutyl)(4-(trifluoromethyl)phenyl)methyl)-2,5-dimethylpiperazin-1-yl)-2,4-dimethyl-3-(((S)-tetrahydrofuran-2-yl)methyl)-3,4-dihydro-5H-imidazo[4,5-b]pyridin-5-one]	≥ 7.00	≥ 7.00	
Cc1nc2c(N3C[C@@H](CO)N(C(c4ccc(C(F)(F)F)cc4)C4CC(F)(F)C4)C[C@@H]3C)nc(=O)n(C)c2n1C[C@@H]1CCCO1 (stereo partly drawn) [Example 41, 6-((2S,5S)-4-((3,3-Difluorocyclobutyl)(4-(trifluoromethyl)phenyl)methyl)-5-(hydroxymethyl)-2-methylpiperazin-1-yl)-3,8-dimethyl-9-(((S)-tetrahydrofuran-2-yl)methyl)-3,9-dihydro-2H-purin-2-one]		≥ 8.00	9.00
C[C@@H]1CN(c2nc(=O)n(C)c3c2nnn3C[C@H]2CCCO2)[C@@H](C)CN1C(c1ccc(C(F)(F)F)cc1)C1CC(F)(F)C1 (stereo partly drawn) [Example 43, 7-((2S,5R)-4-((3,3-Difluorocyclobutyl)(4-(trifluoromethyl)phenyl)methyl)-2,5-dimethylpiperazin-1-yl)-4-methyl-3-(((R)-tetrahydrofuran-2-yl)methyl)-3,4-dihydro-5H-[1,2,3]triazolo[4,5-d]pyrimidin-5-one]	≥ 8.00	≥ 8.00	
CC[C@@H]1CN(c2nc(=O)n(C)c3c2nnn3C[C@H]2CCCO2)[C@@H](C)CN1C(c1ccc(C(F)(F)F)cc1)C1CC(F)(F)C1 (stereo partly drawn) [Example 44, 7-((2S,5R)-4-((3,3-Difluorocyclobutyl)(4-(trifluoromethyl)phenyl)methyl)-5-ethyl-2-methylpiperazin-1-yl)-4-methyl-3-(((R)-tetrahydrofuran-2-yl)methyl)-3,4-dihydro-5H-[1,2,3]triazolo[4,5-d]pyrimidin-5-one]	≥ 8.00	≥ 8.00	
CC[C@@H]1CN(c2nc(=O)n(C)c3c2nnn3C[C@H]2CCCO2)[C@@H](C)CN1C(c1ccc(Cl)cc1)C1CC(F)(F)C1 (stereo partly drawn) [Example 45, 7-((2S,5R)-4-((4-Chlorophenyl)(3,3-difluorocyclobutyl)methyl)-5-ethyl-2-methylpiperazin-1-yl)-4-methyl-3-(((R)-tetrahydrofuran-2-yl)methyl)-3,4-dihydro-5H-[1,2,3]triazolo[4,5-d]pyrimidin-5-one]	≥ 8.00	≥ 8.00	
Cc1nc2c(N3C[C@@H](C)N([C@H](c4ccc5cc(F)ccc5n4)C(C)C)C[C@@H]3C)nc(=O)n(C)c2n1C[C@@H]1CCCO1 [Example 47, 6-((2S,5R)-4-((S)-1-(6-Fluoroquinolin-2-yl)-2-methylpropyl)-2,5-dimethylpiperazin-1-yl)-3,8-dimethyl-9-(((S)-tetrahydrofuran-2-yl)methyl)-3,9-dihydro-2H-purin-2-one]	≥ 8.00	≥ 8.00	
Cc1nc2c(N3C[C@@H](C)N([C@@H](c4ccc5cc(F)ccc5n4)C(C)C)C[C@@H]3C)nc(=O)n(C)c2n1C[C@@H]1CCCO1 [Example 48, 6-((2S,5R)-4-((R)-1-(6-fluoroquinolin-2-yl)-2-methylpropyl)-2,5-dimethylpiperazin-1-yl)-3,8-dimethyl-9-(((S)-tetrahydrofuran-2-yl)methyl)-3,9-dihydro-2H-purin-2-one]	≥ 8.00	≥ 8.00	
Cc1nc2c(N3C[C@@H](C)N([C@@H](c4ccc5ccc(C(F)(F)F)cc5n4)C(C)C)C[C@@H]3C)nc(=O)n(C)c2n1C[C@@H]1CCCO1 [Example 49, 6-((2S,5R)-2,5-Dimethyl-4-((R)-2-methyl-1-(7-(trifluoromethyl)quinolin-2-yl)propyl)piperazin-1-yl)-3,8-dimethyl-9-(((S)-tetrahydrofuran-2-yl)methyl)-3,9-dihydro-2H-purin-2-one]	≥ 8.00	≥ 8.00	
Cc1nc2c(N3C[C@@H](C)N([C@H](c4ccc5ccc(C(F)(F)F)cc5n4)C(C)C)C[C@@H]3C)nc(=O)n(C)c2n1C[C@@H]1CCCO1 [Example 50, 6-((2S,5R)-2,5-dimethyl-4-((S)-2-methyl-1-(7-(trifluoromethyl)quinolin-2-yl)propyl)piperazin-1-yl)-3,8-dimethyl-9-(((S)-tetrahydrofuran-2-yl)methyl)-3,9-dihydro-2H-purin-2-one]	≥ 8.00	≥ 8.00	
Cc1nc2c(N3C[C@@H](C)N([C@H](c4ccc(C(F)(F)F)cc4F)C(C)C)C[C@@H]3C)nc(=O)n(C)c2n1C[C@@H]1CCCO1 [Example 51, 6-((2S,5R)-4-((S)-1-(2-Fluoro-4-(trifluoromethyl)phenyl)-2-methylpropyl)-2,5-dimethylpiperazin-1-yl)-3,8-dimethyl-9-(((S)-tetrahydrofuran-2-yl)methyl)-3,9-dihydro-2H-purin-2-one]	≥ 8.00	≥ 8.00	
Cc1nc2c(N3C[C@@H](C)N([C@@H](c4ccc(C(F)(F)F)cc4F)C(C)C)C[C@@H]3C)nc(=O)n(C)c2n1C[C@@H]1CCCO1 [Example 52, 6-((2S,5R)-4-((R)-1-(2-Fluoro-4-(trifluoromethyl)phenyl)-2-methylpropyl)-2,5-dimethylpiperazin-1-yl)-3,8-dimethyl-9-(((S)-tetrahydrofuran-2-yl)methyl)-3,9-dihydro-2H-purin-2-one]	≥ 8.00	≥ 8.00	
Cc1nc2c(N3C[C@@H](C)N([C@H](c4ccc(C(F)(F)F)cc4)C(C)C)C[C@@H]3C)nc(=O)n(C)c2n1C[C@@H]1CCCO1 [Example 53, 6-((2S,5R)-2,5-Dimethyl-4-((S)-2-methyl-1-(4-(trifluoromethyl)phenyl)propyl)piperazin-1-yl)-3,8-dimethyl-9-(((S)-tetrahydrofuran-2-yl)methyl)-3,9-dihydro-2H-purin-2-one]	≥ 7.00	≥ 7.00	
Cc1nc2c(N3C[C@@H](C)N([C@@H](c4ccc(C(F)(F)F)cc4)C(C)C)C[C@@H]3C)nc(=O)n(C)c2n1C[C@@H]1CCCO1 [Example 54, 6-((2S,5R)-2,5-dimethyl-4-((R)-2-methyl-1-(4-(trifluoromethyl)phenyl)propyl)piperazin-1-yl)-3,8-dimethyl-9-(((S)-tetrahydrofuran-2-yl)methyl)-3,9-dihydro-2H-purin-2-one]	≥ 8.00	≥ 8.00	
Cc1nc2c(N3C[C@@H](C)N([C@H](c4ccc(C(F)F)c(F)c4)C(C)C)C[C@@H]3C)nc(=O)n(C)c2n1C[C@@H]1CCCO1 [Example 55, 6-((2S,5R)-4-((S)-1-(4-(Difluoromethyl)-3-fluorophenyl)-2-methylpropyl)-2,5-dimethylpiperazin-1-yl)-3,8-dimethyl-9-(((S)-tetrahydrofuran-2-yl)methyl)-3,9-dihydro-2H-purin-2-one]	≥ 8.00	≥ 8.00	
Cc1nc2c(N3C[C@@H](C)N([C@@H](c4ccc(C(F)F)c(F)c4)C(C)C)C[C@@H]3C)nc(=O)n(C)c2n1C[C@@H]1CCCO1 [Example 56, 6-((2S,5R)-4-((R)-1-(4-(difluoromethyl)-3-fluorophenyl)-2-methylpropyl)-2,5-dimethylpiperazin-1-yl)-3,8-dimethyl-9-(((S)-tetrahydrofuran-2-yl)methyl)-3,9-dihydro-2H-purin-2-one]	≥ 8.00	≥ 8.00	
CC(C)[C@@H](c1ccc(Cl)cc1)N1C[C@H](C)N(c2nc(=O)n(C)c3c2ncn3CC2(O)CCCC2)C[C@H]1C [Example 57, 6-((2S,5R)-4-((S)-1-(4-Chlorophenyl)-2-methylpropyl)-2,5-dimethylpiperazin-1-yl)-9-((1-hydroxycyclopentyl)methyl)-3-methyl-3,9-dihydro-2H-purin-2-on]	≥ 8.00	≥ 8.00	
CC(C)[C@H](c1ccc(Cl)cc1)N1C[C@H](C)N(c2nc(=O)n(C)c3c2ncn3CC2(O)CCCC2)C[C@H]1C [Example 58, 6-((2S,5R)-4-((R)-1-(4-chlorophenyl)-2-methylpropyl)-2,5-dimethylpiperazin-1-yl)-9-((1-hydroxycyclopentyl)methyl)-3-methyl-3,9-dihydro-2H-purin-2-one]	≥ 8.00	≥ 8.00	
